Assay results: PubChem BioAssay (NCI)
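The concentration for 50% growth inhibition is given as GI50. Definition used: TGI = concentration required for complete inhibition of growth.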

Experiments:
Experiment in all cases: NCI-60 cell line screen, 384-well format
786-0 renal = test system: 786-0 renal
A498 renal = test system: A498 renal
A549 NSCLC = test system: A549 NSCLC
ACHN renal = test system: ACHN renal
BT-549 breast = test system: BT-549 breast
CAKI-1 renal = test system: CAKI-1 renal
CCRF-CEM leukemia = test system: CCRF-CEM leukemia
COLO 205 colon = test system: COLO 205 colon
DU-145 prostate = test system: DU-145 prostate
HCC-2998 colon = test system: HCC-2998 colon
HCT-116 colon = test system: HCT-116 colon
HCT-15 colon = test system: HCT-15 colon
HL-60(TB) leukemia = test system: HL-60(TB) leukemia
HOP-62 NSCLC = test system: HOP-62 NSCLC
HOP-92 NSCLC = test system: HOP-92 NSCLC
HT29 colon = test system: HT29 colon
IGROV1 ovarian = test system: IGROV1 ovarian
K-562 leukemia = test system: K-562 leukemia
KM12 colon = test system: KM12 colon
LOX IMVI melanoma = test system: LOX IMVI melanoma
M14 melanoma = test system: M14 melanoma
MALME-3M melanoma = test system: MALME-3M melanoma
MCF7 breast = test system: MCF7 breast
MDA-MB-231 breast = test system: MDA-MB-231 breast
MDA-MB-435 melanoma = test system: MDA-MB-435 melanoma
MDA-MB-468 breast = test system: MDA-MB-468 breast
MOLT-4 leukemia = test system: MOLT-4 leukemia
NCI-H226 lung = test system: NCI-H226 lung
NCI-H23 lung = test system: NCI-H23 lung
NCI-H322M lung = test system: NCI-H322M lung
NCI-H460 NSCLC = test system: NCI-H460 NSCLC
NCI-H522 lung = test system: NCI-H522 lung
NCI/ADR-RES ovarian = test system: NCI/ADR-RES ovarian
OVCAR-3 ovarian = test system: OVCAR-3 ovarian
OVCAR-4 ovarian = test system: OVCAR-4 ovarian
OVCAR-5 ovarian = test system: OVCAR-5 ovarian
OVCAR-8 ovarian = test system: OVCAR-8 ovarian
PC-3 prostate = test system: PC-3 prostate
RPMI-8226 leukemia = test system: RPMI-8226 leukemia
RXF 393 renal = test system: RXF 393 renal
SF-268 CNS = test system: SF-268 CNS
SF-295 CNS = test system: SF-295 CNS
SF-539 CNS = test system: SF-539 CNS
SK-MEL-2 melanoma = test system: SK-MEL-2 melanoma
SK-MEL-28 melanoma = test system: SK-MEL-28 melanoma
SK-MEL-5 melanoma = test system: SK-MEL-5 melanoma
SK-OV-3 ovarian = test system: SK-OV-3 ovarian
SN12C renal = test system: SN12C renal
SNB-19 CNS = test system: SNB-19 CNS
SR leukemia = test system: SR leukemia
SW-620 colon = test system: SW-620 colon
T-47D breast = test system: T-47D breast
TK-10 renal = test system: TK-10 renal
U251 glioblastoma = test system: U251 glioblastoma
UACC-257 melanoma = test system: UACC-257 melanoma
UACC-62 melanoma = test system: UACC-62 melanoma
UO-31 renal = test system: UO-31 renal
EKVX NSCLC = test system: EKVX NSCLC
SNB-75 CNS = test system: SNB-75 CNS

## COc1nnc2ccc(N3CCC(c4ccc(OCCN5CCN(C)C(=O)[C@H]5C)cc4)CC3)nn12
786-0 renal
  GI50: 45.5 nM
  TGI: 13.4 µM
A498 renal
  GI50: 53.8 nM
  TGI: 655 nM
A549 NSCLC
  GI50: 42.5 nM
  TGI: 1640 nM
ACHN renal
  GI50: 108 nM
  TGI: 3.05 µM
BT-549 breast
  GI50: 23.1 nM
  TGI: 214 nM
CAKI-1 renal
  GI50: 16.9 nM
  TGI: 382 nM
CCRF-CEM leukemia
  GI50: 26.8 nM
  TGI: 166 nM
COLO 205 colon
  GI50: 35.9 nM
  TGI: 248 nM
DU-145 prostate
  GI50: 369 nM
  TGI: > 100 µM
HCC-2998 colon
  GI50: 13.3 nM
  TGI: 48.8 nM
HCT-116 colon
  GI50: 37.7 nM
  TGI: 2530 nM
HCT-15 colon
  GI50: 31.7 nM
  TGI: 194 nM
HL-60(TB) leukemia
  GI50: < 0.01 µM
  TGI: 19.1 nM
HOP-62 NSCLC
  GI50: 27.4 nM
  TGI: 475 nM
HOP-92 NSCLC
  GI50: 12.7 nM
  TGI: 74.5 nM
HT29 colon
  GI50: 28.8 nM
  TGI: 2120 nM
IGROV1 ovarian
  GI50: 29.3 nM
  TGI: 162 nM
K-562 leukemia
  GI50: 35 nM
  TGI: 3.71 µM
KM12 colon
  GI50: 46 nM
  TGI: 12.5 µM
LOX IMVI melanoma
  GI50: 0.0272 µM
  TGI: 0.061 µM
M14 melanoma
  GI50: 18.3 nM
  TGI: 1570 nM
MALME-3M melanoma
  GI50: 73.8 nM
  TGI: 791 nM
MCF7 breast
  GI50: 11.7 nM
  TGI: 158 nM
MDA-MB-231 breast
  GI50: 46.2 nM
  TGI: 2570 nM
MDA-MB-435 melanoma
  GI50: 75.9 nM
  TGI: > 100 µM
MDA-MB-468 breast
  GI50: < 0.01 µM
  TGI: 0.0512 µM
MOLT-4 leukemia
  GI50: 14.3 nM
  TGI: 37.7 nM
NCI-H226 lung
  GI50: 38.9 nM
  TGI: 416 nM
NCI-H23 lung
  GI50: 62.7 nM
  TGI: 629 nM
NCI-H322M lung
  GI50: 28.9 nM
  TGI: 640 nM
NCI-H460 NSCLC
  GI50: 58.7 nM
  TGI: 15.4 µM
NCI-H522 lung
  GI50: < 0.01 µM
  TGI: 46 nM
NCI/ADR-RES ovarian
  GI50: 269 nM
  TGI: 2180 nM
OVCAR-3 ovarian
  GI50: 17.2 nM
  TGI: 135 nM
OVCAR-4 ovarian
  GI50: 10.2 nM
  TGI: 40.2 nM
OVCAR-5 ovarian
  GI50: 60.5 nM
  TGI: 2970 nM
OVCAR-8 ovarian
  GI50: 23.9 nM
  TGI: 218 nM
PC-3 prostate
  GI50: 122 nM
  TGI: 90.7 µM
RPMI-8226 leukemia
  GI50: 12.2 nM
  TGI: 33.8 nM
RXF 393 renal
  GI50: 22.8 nM
  TGI: 78.8 nM
SF-268 CNS
  GI50: 58.6 nM
  TGI: 14.4 µM
SF-295 CNS
  GI50: 86.4 nM
  TGI: 4.97 µM
SF-539 CNS
  GI50: 53.9 nM
  TGI: 8.62 µM
SK-MEL-2 melanoma
  GI50: < 0.01 µM
  TGI: 41.3 nM
SK-MEL-28 melanoma
  GI50: 30.6 nM
  TGI: 1490 nM
SK-MEL-5 melanoma
  GI50: 17.8 nM
  TGI: 98.6 nM
SK-OV-3 ovarian
  GI50: 17.3 nM
  TGI: 144 nM
SN12C renal
  GI50: 165 nM
  TGI: 1480 nM
SNB-19 CNS
  GI50: 311 nM
  TGI: 77.9 µM
SR leukemia
  GI50: < 0.01 µM
  TGI: 0.0208 µM
SW-620 colon
  GI50: 114 nM
  TGI: 1280 nM
T-47D breast
  GI50: 0.0297 µM
  TGI: 537 nM
TK-10 renal
  GI50: 34.8 nM
  TGI: 460 nM
U251 glioblastoma
  GI50: 77.1 nM
  TGI: 11.9 µM
UACC-257 melanoma
  GI50: 25 nM
  TGI: 573 nM
UACC-62 melanoma
  GI50: < 0.01 µM
  TGI: 96.4 nM
UO-31 renal
  GI50: 0.0569 µM
  TGI: 1.56 µM

## O=C1Cc2cc(C(=O)NC3C[C@H]4CC[C@@H](C3)N4S(=O)(=O)CC3CCN(CCCC(F)(F)F)CC3)c(Cl)cc2N1 (some centres not stated)
786-0 renal
  GI50: > 100000 nM
  TGI: > 100 µM
A498 renal
  GI50: > 100000 nM
  TGI: > 100000 nM
A549 NSCLC
  GI50: > 51000 nM
  TGI: > 81000 nM
ACHN renal
  GI50: > 50100 nM
  TGI: > 77.9 µM
BT-549 breast
  GI50: > 49100 nM
  TGI: > 73800 nM
CAKI-1 renal
  GI50: > 46200 nM
  TGI: > 65500 nM
CCRF-CEM leukemia
  GI50: > 43800 nM
  TGI: > 57700 nM
COLO 205 colon
  GI50: > 78000 nM
  TGI: > 100000 nM
DU-145 prostate
  GI50: > 51200 nM
  TGI: > 80 µM
EKVX NSCLC
  GI50: > 100 µM
  TGI: > 100 µM
HCC-2998 colon
  GI50: > 100000 nM
  TGI: > 100000 nM
HCT-116 colon
  GI50: > 42000 nM
  TGI: > 56500 nM
HCT-15 colon
  GI50: > 46300 nM
  TGI: > 64500 nM
HL-60(TB) leukemia
  GI50: > 46.1 µM
  TGI: > 60400 nM
HOP-62 NSCLC
  GI50: > 49600 nM
  TGI: > 73600 nM
HOP-92 NSCLC
  GI50: > 100000 nM
  TGI: > 100000 nM
HT29 colon
  GI50: > 100000 nM
  TGI: > 100000 nM
IGROV1 ovarian
  GI50: > 57900 nM
  TGI: > 100000 nM
K-562 leukemia
  GI50: > 42300 nM
  TGI: > 56.5 µM
KM12 colon
  GI50: > 100000 nM
  TGI: > 100 µM
LOX IMVI melanoma
  GI50: 19.2 µM
  TGI: 33.8 µM
M14 melanoma
  GI50: > 100000 nM
  TGI: > 100000 nM
MALME-3M melanoma
  GI50: > 100000 nM
  TGI: > 100000 nM
MCF7 breast
  GI50: > 100000 nM
  TGI: > 100000 nM
MDA-MB-231 breast
  GI50: > 100000 nM
  TGI: > 100000 nM
MDA-MB-435 melanoma
  GI50: > 100000 nM
  TGI: > 100 µM
MDA-MB-468 breast
  GI50: 25.5 µM
  TGI: 57.7 µM
MOLT-4 leukemia
  GI50: > 67000 nM
  TGI: > 100000 nM
NCI-H226 lung
  GI50: > 100000 nM
  TGI: > 100000 nM
NCI-H23 lung
  GI50: > 52900 nM
  TGI: > 71200 nM
NCI-H322M lung
  GI50: > 100000 nM
  TGI: > 100000 nM
NCI-H460 NSCLC
  GI50: > 100000 nM
  TGI: > 100 µM
NCI-H522 lung
  GI50: > 44.7 µM
  TGI: > 58900 nM
NCI/ADR-RES ovarian
  GI50: > 100000 nM
  TGI: > 100000 nM
OVCAR-3 ovarian
  GI50: > 45000 nM
  TGI: > 63500 nM
OVCAR-4 ovarian
  GI50: > 100000 nM
  TGI: > 100000 nM
OVCAR-5 ovarian
  GI50: > 49900 nM
  TGI: > 73100 nM
OVCAR-8 ovarian
  GI50: > 44100 nM
  TGI: > 61900 nM
PC-3 prostate
  GI50: > 52100 nM
  TGI: > 74.7 µM
RPMI-8226 leukemia
  GI50: > 45600 nM
  TGI: > 59300 nM
RXF 393 renal
  GI50: > 78500 nM
  TGI: > 100000 nM
SF-268 CNS
  GI50: > 100000 nM
  TGI: > 100 µM
SF-295 CNS
  GI50: > 100000 nM
  TGI: > 100 µM
SF-539 CNS
  GI50: > 100000 nM
  TGI: > 100 µM
SK-MEL-2 melanoma
  GI50: > 87 µM
  TGI: > 100000 nM
SK-MEL-28 melanoma
  GI50: > 100000 nM
  TGI: > 100000 nM
SK-MEL-5 melanoma
  GI50: > 43500 nM
  TGI: > 57500 nM
SK-OV-3 ovarian
  GI50: > 47300 nM
  TGI: > 72800 nM
SN12C renal
  GI50: > 62400 nM
  TGI: > 100000 nM
SNB-19 CNS
  GI50: > 49800 nM
  TGI: > 74.9 µM
SNB-75 CNS
  GI50: > 100 µM
  TGI: > 100 µM
SR leukemia
  GI50: 38.7 µM
  TGI: 99.3 µM
SW-620 colon
  GI50: > 58100 nM
  TGI: > 100000 nM
T-47D breast
  GI50: 60.3 µM
  TGI: > 100000 nM
TK-10 renal
  GI50: > 46400 nM
  TGI: > 65300 nM
U251 glioblastoma
  GI50: > 100000 nM
  TGI: > 100 µM
UACC-257 melanoma
  GI50: > 100000 nM
  TGI: > 100000 nM
UACC-62 melanoma
  GI50: > 100 µM
  TGI: > 100000 nM
UO-31 renal
  GI50: 23.2 µM
  TGI: 47.5 µM
